Earlier results, collected in US5840770A, “Method of killing tumor cells” (Hill Medical Corporation, priority 1997, dated 1998).
Values belong to the compound of their own block, whether it stands above or below them.

Experiments:
cholinergic receptors = conditions: in vivo
[1] = not given; remark: listed apart in the source
[2] = normally
[3] = tested on: mouse and rat transplanted tumors; conditions: in vivo
[4] = tested on: low-grade non-Hodgkin's lymphoma, cutaneous T cell lymphoma, chronic myelogenous leukemia, Kaposi's sarcoma and especially hairy cell leukemia
serum potassium = conditions: in vivo

duration (cholinergic receptors): 4 to 8 h | onset (cholinergic receptors): 15 to 30 min
Compound: CC[C@@H]1C(=O)OC[C@@H]1Cc1cncn1C [Pilocarpine, pilocarpine]

infused glucose retained (0.8 gm/kg/hour): 95% | maximum infusion rate without producing glycosuria (in vivo): 0.5 gm/kg/hour | osmolarity ([1]; 5% dextrose): 253 mOsm/L | tonicity ([1]; 5% dextrose solution): isotonic
Compound: O=C[C@H](O)[C@@H](O)[C@H](O)[C@H](O)CO [dextrose]

potassium intake excreted in the urine [2]: 80-90%
Compound: [K+] [potassium]

Compound: Glucagon: glucagon alone
effect on transplanted tumors [3]: arrested these cancers

Compound: Interferon-alpha
efficacy ([4]; listed lymphomas, leukemias, Kaposi's sarcoma): effective | effect on other tumors ([4]; tumors other than those listed): no effect

Compound: insulin
effect on transplanted tumors [3]: no therapeutic effect | serum potassium concentration (serum potassium): lowers serum potassium concentration
